In patent US10370433B2, “Compositions and methods for diagnosis and treatment of cancer” (BIONTECH AG, priority 2015, dated 2019):
Positions of bridges follow the written chain, without caps; N, C: chain ends. Residues, ends and D or L forms follow the SMILES beside them.

Assays:
DPP IV = biological target: T1, DPP IV (Homo sapiens, UniProt P27487); format: binding
T1 construct: purchased R&D Systems

human Seprase [1] = biological target: T2, human Seprase (Homo sapiens, UniProt Q12884); format: binding; parameters: named pCEP4-IgKappa-huSeprase-coCHO_26-760aa-H6 and used for the generation of recombinant soluble human Seprase (rhuSeprase); mouse Ig kappa-chain V-J2-C secretion signal (N, cleaved yes); made in house; host or cells: FreeStyle CHO-S cells (transient transfection; purified from supernatant by Ni-chelate and SEC)
T2 sequence (Q12884 26-760): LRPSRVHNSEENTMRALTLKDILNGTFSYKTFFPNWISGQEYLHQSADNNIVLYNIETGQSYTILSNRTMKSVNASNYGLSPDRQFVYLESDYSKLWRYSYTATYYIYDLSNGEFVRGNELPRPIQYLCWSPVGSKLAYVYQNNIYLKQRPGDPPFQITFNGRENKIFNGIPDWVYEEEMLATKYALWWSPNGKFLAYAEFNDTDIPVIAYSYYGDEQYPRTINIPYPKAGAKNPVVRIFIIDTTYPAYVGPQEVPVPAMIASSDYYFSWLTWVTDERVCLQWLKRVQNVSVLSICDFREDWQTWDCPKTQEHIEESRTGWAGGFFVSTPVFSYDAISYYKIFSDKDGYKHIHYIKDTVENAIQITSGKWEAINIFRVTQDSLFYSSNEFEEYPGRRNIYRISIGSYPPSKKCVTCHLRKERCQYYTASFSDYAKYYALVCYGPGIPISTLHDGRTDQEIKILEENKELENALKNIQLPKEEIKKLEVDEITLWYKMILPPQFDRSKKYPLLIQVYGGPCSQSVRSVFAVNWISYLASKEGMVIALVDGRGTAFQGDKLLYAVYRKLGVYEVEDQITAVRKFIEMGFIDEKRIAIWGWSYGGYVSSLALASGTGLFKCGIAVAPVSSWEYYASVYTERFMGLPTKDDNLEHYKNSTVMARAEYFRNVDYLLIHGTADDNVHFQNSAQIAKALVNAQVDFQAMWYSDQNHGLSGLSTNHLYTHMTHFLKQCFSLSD

[2] = biological target: T3, murine homologue of Seprase (Mus musculus, UniProt P97321); format: cell-based
T3 construct: expressed in transfected cells; host or cells: CHO-K1
T3 sequence (P97321 1-761): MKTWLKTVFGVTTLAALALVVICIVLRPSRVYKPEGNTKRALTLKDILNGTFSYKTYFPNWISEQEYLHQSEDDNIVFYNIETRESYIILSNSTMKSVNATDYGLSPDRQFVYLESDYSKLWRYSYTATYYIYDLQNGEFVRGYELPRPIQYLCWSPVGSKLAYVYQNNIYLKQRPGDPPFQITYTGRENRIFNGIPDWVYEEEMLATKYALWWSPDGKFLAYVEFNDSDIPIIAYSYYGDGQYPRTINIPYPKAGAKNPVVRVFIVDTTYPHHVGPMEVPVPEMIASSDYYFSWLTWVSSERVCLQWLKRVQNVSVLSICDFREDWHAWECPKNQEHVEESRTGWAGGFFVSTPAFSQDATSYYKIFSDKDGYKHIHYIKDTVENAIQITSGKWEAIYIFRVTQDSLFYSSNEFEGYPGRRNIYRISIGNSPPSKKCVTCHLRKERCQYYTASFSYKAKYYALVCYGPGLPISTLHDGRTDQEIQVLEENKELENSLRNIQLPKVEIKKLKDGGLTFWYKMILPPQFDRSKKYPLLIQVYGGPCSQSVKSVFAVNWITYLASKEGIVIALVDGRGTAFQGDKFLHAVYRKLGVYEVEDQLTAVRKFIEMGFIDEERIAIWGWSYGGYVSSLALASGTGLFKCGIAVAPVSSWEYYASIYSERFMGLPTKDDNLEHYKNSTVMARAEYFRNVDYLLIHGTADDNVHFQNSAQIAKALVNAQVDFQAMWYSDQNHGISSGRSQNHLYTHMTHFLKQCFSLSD

[3] = biological target: T4, recombinant human Seprase (rhuSeprase) (Homo sapiens, UniProt Q12884); test: Surface plasmon resonance (Biacore T100) on immobilized rhuSeprase; format: binding; settings: for kon: read-out: ka (1/Ms)
T4 construct: named pCEP4-IgKappa-huSeprase-coCHO_26-760aa-H6 and used for the generation of recombinant soluble human Seprase (rhuSeprase); mouse Ig kappa-chain V-J2-C secretion signal (N, cleaved yes); made in house; host or cells: FreeStyle CHO-S cells (transient transfection; purified from supernatant by Ni-chelate and SEC)
T4 sequence (Q12884 26-760): T2 sequence (Q12884 26-760)

[4] = biological target: T5, murine Seprase expressing tumor cells (CAFs in CT26 tumor sections) (Mus musculus, UniProt P97321); test: Staining of paraffin sections of CT26 tumors
T5 construct: from tissue; host or cells: paraffin sections of subcutaneous CT26 tumors grown in BALB/c mice (stromal CAFs)
T5 sequence (P97321 1-761): T3 sequence (P97321 1-761)

human Seprase [5] = biological target: T2, human Seprase

T1 sequence (P27487 whole entry): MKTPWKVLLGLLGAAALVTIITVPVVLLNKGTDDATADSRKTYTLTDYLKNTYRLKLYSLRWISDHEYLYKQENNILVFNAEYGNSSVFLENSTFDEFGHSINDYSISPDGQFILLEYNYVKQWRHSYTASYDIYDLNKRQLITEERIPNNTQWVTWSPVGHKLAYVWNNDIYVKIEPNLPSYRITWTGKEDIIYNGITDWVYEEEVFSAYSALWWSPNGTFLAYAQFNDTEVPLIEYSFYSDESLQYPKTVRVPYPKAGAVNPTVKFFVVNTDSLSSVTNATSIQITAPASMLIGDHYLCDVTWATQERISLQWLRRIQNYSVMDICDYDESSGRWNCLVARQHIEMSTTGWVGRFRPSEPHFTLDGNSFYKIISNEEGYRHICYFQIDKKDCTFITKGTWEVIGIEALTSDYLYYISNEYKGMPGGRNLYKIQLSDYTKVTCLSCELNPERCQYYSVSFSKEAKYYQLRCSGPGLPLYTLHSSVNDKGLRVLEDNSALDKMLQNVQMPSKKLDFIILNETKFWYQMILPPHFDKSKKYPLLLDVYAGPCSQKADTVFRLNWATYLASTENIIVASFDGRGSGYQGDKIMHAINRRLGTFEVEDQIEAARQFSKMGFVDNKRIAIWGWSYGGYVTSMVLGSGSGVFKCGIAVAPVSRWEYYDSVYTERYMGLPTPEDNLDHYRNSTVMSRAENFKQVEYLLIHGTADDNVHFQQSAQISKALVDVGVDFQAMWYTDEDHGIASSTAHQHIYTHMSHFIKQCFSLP

| SMILES | binding to DPP IV (DPP IV) | EC50, binding affinity to human Seprase (human Seprase [1]) | binding to Seprase (human Seprase [1]) | cross-reactivity with the murine homologue [2] | kd [3] [s⁻¹] | kon [3] [M⁻¹ s⁻¹] | binding to CT26 tumor section [4] | IC50, binding affinity to human Seprase (human Seprase [5]) | Kd ([3]; KD (M, steady state)) [nM] |
| --- | --- | --- | --- | --- | --- | --- | --- | --- | --- |
| CC[C@H](C)[C@@H]1NC(=O)[C@@H]2CSSC[C@H](NC(=O)[C@H](CCCCN)NC(=O)CN)C(=O)N3CCC[C@H]3C(=O)N[C@@H](Cc3ccc(O)cc3)C(=O)N[C@@H](CO)C(=O)N[C@@H](CC(N)=O)C(=O)N[C@@H](Cc3c[nH]c4ccccc34)C(=O)N[C@@H]([C@@H](C)O)C(=O)N3CCC[C@H]3C(=O)NCC(=O)N[C@@H](CCCNC(=N)N)C(=O)NCC(=O)N3CCC[C@H]3C(=O)N[C@@H](CC(=O)O)C(=O)N[C@H]3CSSC[C@H](NC1=O)C(=O)N[C@@H](CCCNC(=N)N)C(=O)NCC(=O)N[C@@H](CC(N)=O)C(=O)NCC(=O)N[C@@H](Cc1ccc(O)cc1)C(=O)N[C@H](C(=O)NCC(=O)O)CSSC[C@H](NC(=O)[C@H](CC(=O)O)NC(=O)[C@H](CO)NC(=O)[C@H](CC(=O)O)NC(=O)[C@H](CCCNC(=N)N)NC(=O)[C@H](CCCNC(=N)N)NC3=O)C(=O)N1CCC[C@H]1C(=O)NCC(=O)N[C@@H](CCCNC(=N)N)C(=O)N2 [MC-FA-010] (H-GKCPYSNWTPGRGPDCRRDSDCPGRCICRGNGYCG-OH; disulfide 3-26, 16-28, 22-34) | very weak signal | nanomolar range | binds strongly and selectively | cross-reactive | 0.2006 | 1.53e+06 | binds on CAFs | nanomolar range | – |
| CC[C@H](C)[C@@H]1NC(=O)[C@@H]2CSSC[C@H](NC(=O)[C@H](C)NC(=O)CN)C(=O)N3CCC[C@H]3C(=O)N[C@@H](Cc3ccc(O)cc3)C(=O)N[C@@H](CO)C(=O)N[C@@H](CC(N)=O)C(=O)N[C@@H](Cc3c[nH]c4ccccc34)C(=O)N[C@@H]([C@@H](C)O)C(=O)N3CCC[C@H]3C(=O)NCC(=O)N[C@@H](CCCNC(=N)N)C(=O)NCC(=O)N3CCC[C@H]3C(=O)N[C@@H](CC(=O)O)C(=O)N[C@H]3CSSC[C@H](NC1=O)C(=O)N[C@@H](CCCNC(=N)N)C(=O)NCC(=O)N[C@@H](CC(N)=O)C(=O)NCC(=O)N[C@@H](Cc1ccc(O)cc1)C(=O)N[C@H](C(=O)NCC(=O)O)CSSC[C@H](NC(=O)[C@H](CC(=O)O)NC(=O)[C@H](CO)NC(=O)[C@H](CC(=O)O)NC(=O)[C@H](CCCNC(=N)N)NC(=O)[C@H](CCCNC(=N)N)NC3=O)C(=O)N1CCC[C@H]1C(=O)NCC(=O)N[C@@H](CCCNC(=N)N)C(=O)N2 [MC-FA-012] (H-GACPYSNWTPGRGPDCRRDSDCPGRCICRGNGYCG-OH; disulfide 3-26, 16-28, 22-34; N-terminus and C-terminus assumed) | – | – | – | – | – | 408000 | – | – | – |
| CC[C@H](C)[C@@H]1NC(=O)[C@@H]2CSSC[C@H](NC(=O)[C@H](C)NC(=O)CNC(=O)[C@H](CO)NC(=O)CN)C(=O)N3CCC[C@H]3C(=O)N[C@@H](Cc3ccc(O)cc3)C(=O)N[C@@H](CO)C(=O)N[C@@H](CCCNC(=N)N)C(=O)N[C@@H](Cc3c[nH]c4ccccc34)C(=O)N[C@@H](C)C(=O)N[C@@H](C(C)C)C(=O)NCC(=O)N[C@@H](CCCNC(=N)N)C(=O)NCC(=O)N3CCC[C@H]3C(=O)N[C@@H](CC(=O)O)C(=O)N[C@H]3CSSC[C@H](NC1=O)C(=O)N[C@@H](CCCNC(=N)N)C(=O)NCC(=O)N[C@@H](CC(N)=O)C(=O)NCC(=O)N[C@@H](Cc1ccc(O)cc1)C(=O)N[C@H](C(=O)NCC(=O)O)CSSC[C@H](NC(=O)[C@H](CC(=O)O)NC(=O)[C@H](CO)NC(=O)[C@H](CC(=O)O)NC(=O)[C@H](CCCNC(=N)N)NC(=O)[C@H](CCCNC(=N)N)NC3=O)C(=O)N1CCC[C@H]1C(=O)NCC(=O)N[C@@H](CCCNC(=N)N)C(=O)N2 [FA8-D06] (H-GSGACPYSRWAVGRGPDCRRDSDCPGRCICRGNGYCG-OH; disulfide 5-28, 18-30, 24-36; N-terminus and C-terminus assumed) | – | – | – | – | 0.05303 | 346000 | – | – | 113 |
